Legend:
[1] = mouse, in vivo, ip
[2] = test system: HCT8 enterocyte and HT29-MTX goblet cell lines; experiment: Oris Cell Migration assay (epithelial cell wound healing); assay type: cell-based, human; settings: 48 hours; SG-11 (SEQ ID NO:5 or SEQ ID NO:9) 1 μg/ml, EGF 30 ng/ml, staurosporine 100 nM; FIG. 2
Source text: The 96 well Oris Cell Migration assay containing plugs preventing cell attachment in the center of each well was used according to the manufacturer's instructions (Platypus Technologies, Madison, Wis.). The migration assay plates were warmed to room temperature prior to use and plugs were removed from 100% confluence wells prior to cell addition. The HCT8 enterocyte and HT29-MTX goblet cell lines were used at a 9:1 ratio with a total of 5×10^4 total cells added per well (4.5×10^4 HCT8 cells and 0.5×10^4 HT29-MTX cells). Cells were incubated at 37° C.+5% CO2 for 24 hours. Plugs were then removed from all control and sample wells. Control wells included cells treated with the diluent vehicle as the blank, 30 ng/ml epidermal growth factor (EGF) as the positive control, and 100 nM staurosporine as the negative control, all diluted in cRPMI. Sample wells contained SG-11 protein (SEQ ID NO:9) at a concentration of 1 μg/ml diluted in cRPMI. 100% and 0% wells were cultured in cRPMI. […] The green fluorescent viability dye […] was added to all wells at a concentration of 0.5 μg/ml in PBS containing 0.9 mM CaCl2 and 0.5 mM MgCl2, incubated for 30 min at 37° C.+5% CO2, the dye was removed and cells were washed in PBS containing 0.9 mM CaCl2 and 0.5 mM MgCl2 and fluorescence was measured. […] Samples were normalized between 100% and 0% samples and values expressed as a percent growth.

[3] = test system: C57BL/6 mice given 2.5% DSS in drinking water; experiment: Concurrent (prophylactic) DSS model of inflammatory bowel disease (Example 4, Example 13A); assay type: in vivo, mouse; settings: 50 nmoles/kg i.p. b.i.d.
[4] = test system: C57BL/6 mice given 2.5% DSS in drinking water; experiment: Therapeutic DSS model of inflammatory bowel disease, treatment after 7 days DSS (Example 5, Example 13B); assay type: in vivo, mouse
Experimental: In this example, experiments were performed to study the effects of SG-11 in the DSS mouse model when the SG-11 protein is administered to the mice after DSS treatment for 7 days. This differs from the treatment regimen of Example 4 above in which mice were administered SG-11 protein shortly before treatment with DSS.
Eight-week-old male C57BL/6 mice were housed 5 animals per cage and given food and water ad libitum for seven days. Following a 7-day acclimation period, the mice were provided with drinking water containing 2.5% DSS for 7 days. Fresh 2.5% DSS water was prepared every 2 days during the 7 day DSS administration. For this therapeutic DSS study, SG-11 used to treat the animals was fused at its N-terminus to a FLAG Tag (DYKDDDDK; SEQ ID NO:32).
On day 7 normal drinking water was restored and i.p. treatments of 50 nmole/kg of SG-11 (1.3 mg/kg) or Gly2-GLP2 (0.2 mg/kg) were initiated. Treatments were administered twice a day (b.i.d.), with a morning and evening dose (every 8 and 16 hours) for six days.
Body weight was measured daily during the morning treatment. The colon tissue was then harvested and length was measured in centimeters and the tissue was weighed. Fecal material was flushed from the colon and residual PBS removed by gently running the colon tissue through a pair of forceps. The colon tissue was then weighed and colon weight to length ratio in mg/mm was determined. Following weight measurements proximal and distal colon tissue was banked for RNA and protein analysis and the remaining tissues was fixed in 10% neutral buffered formalin for histopathology. Statistical analysis was performed by a one-way ANOVA compared to DSS+vehicle for serum 4KDa-FITC translocation, serum LBP concentrations, colon length, and colon weight to length ratio, while a two-way ANOVA was performed for analysis of body weight. In all analysis, a Fisher's LSD test for multiple comparisons was used. Graphs represent data pooled from two experiments, and are plotted as mean±SEM.
Histopathology analysis was performed on proximal and distal colon tissues from the therapeutic DSS model described above. Proximal (FIG. 13A) and distal (FIG. 13B) colon scores (range 0-4) are presented and as well as the total score for the colon which represents the sum of proximal and distal colon scores (Range 0-8) (FIG. 13C). LMA=Loss of mucosal architecture, Edema=Edema, INF=Inflammation, TMI=Transmural inflammation, MH=Mucosal hyperplasia, DYS=Dysplasia. Graphs represent data pooled from two independent experiments, and are plotted as mean±SEM. Statistical analysis was performed by a one-way ANOVA compared to DSS+vehicle followed by a Fisher's LSD test for multiple comparisons.
In the second experiment (Example 13B), mice were provided with drinking water containing 2.5% DSS for 7 days. On day 7 normal drinking water was restored and i.p. treatments of 50 nmole/kg of SG-11 (SEQ ID NO:7) (1.3 mg/kg), SG-11V5 (SEQ ID NO:19) (1.3 mg/kg), or Gly2-GLP2 (0.2 mg/kg) were initiated. […]
At the end of each DSS model study, mice were fasted for 4 hours and then orally gavaged with 600 mg/kg 4KDa dextran labeled with fluorescein isothiocyanate (FITC) [4KDa-FITC]. One hour after the 4KDa-FITC gavage mice were euthanized, blood was collected and FITC signal was measured in serum. […]
Upon completion of the DSS models above, LBP levels were measured as an inflammation centric readout of barrier function following the protocol detailed in Example 5. […]

[5] = Example 5, colon tissue, vs DSS+vehicle, FIG. 13

For “fluorescently labeled bovine serum albumin: tracer protein used in preliminary tracking studies after i.p. injection”, the “Time at which protein reached the colon after i.p. delivery” value [1] was 6 h.
With CN[C@@H]1C[C@H]2O[C@@](C)([C@@H]1OC)n1c3ccccc3c3c4c(c5c6ccccc6n2c5c31)C(=O)NC4 [staurosporine] the “Percent growth (epithelial cell wound healing, proliferation)” value [2] was “suppressing cell proliferation”.
With “epidermal growth factor [EGF, positive control in the wound healing assay]” the “Percent growth (epithelial cell wound healing, proliferation)” value [2] was “increasing proliferation”.
In the case of “Gly2-GLP2: stable analog of glucagon-like peptide 2 (GLP2), positive control (HGDGSFSDEMNTILDNLAARDFINWLIQTKITD; Glucagon-like peptide 2; UniProt P01275 146-178, looked up, variant A2G) [reference compound]”, the Colon length ([3]; FIG. 8A) is reported as “significant improvement in colon length”, the “Colon weight to length ratio” value ([3]; FIG. 8B) is reported as “significant improvement in colon weight to length ratios” and the LBP in serum ([4]; Example 5, 50 nmole/kg i.p. b.i.d. for six days after 7 days DSS, FIG. 10) is reported as “no reduction in LBP”. The “Histopathology: inflammation and transmural inflammation scores” value [4, 5] was “no change”, the “Histopathology: loss of mucosal architecture score” value [4, 5] was “modest, but significant, reduction” and the “Colon weight to length ratio” value ([4]; Example 13B, 50 nmole/kg, vs DSS+vehicle, p<0.01, FIG. 23B) was “did not”. The “4KDa-FITC intestinal permeability readout and serum LBP” value ([4]; treatment after 7 days DSS, 50 nmole/kg i.p. b.i.d. for six days, FLAG-tagged SG-11) was “no significant effects”.

Reference: patent publication US11505583B2, “Proteins for the treatment of epithelial barrier function disorders” (Second Genome, Inc., priority 2018, dated 2022)
